Here are results for 19 compounds from patent US7358250B2, “Pyrrolo[2,3-d]pyrimidines that modulate ACK1 activity” (Amgen Inc., priority 2004, dated 2008).

The target of one test is T1, LCK (Homo sapiens, UniProt P06239).
T1 construct: 15 μL of LCK KD GST (225-509) for a final volume of 40 μL; GST
Kind of test: LCK-Homogeneous Time Resolved Fluorescent (HTRF) Kinase Assay. It counts as biochemical. The conditions noted are these: LCK KD GST (225-509). As for the experimental part: The LCK HTRF assay begins with LCK in the presence of ATP phosphorylating the biotinylated peptide Gastrin. The reaction incubates for 90 min. To quench the assay detection reagents are added which both stop the reaction by diluting out the enzyme and chelating the metals due to the presence of EDTA. Once the detection reagents are added the assay incubates for 30 min to allow for equilibration of the detection reagents.
The final concentration of gastrin is 1.2 μM. The final concentration of ATP is 0.5 μM (Km app=[…]) and the final concentration of LCK is […]. Buffer conditions are as follows: 50 mM HEPES pH 7.5, 50 mM NaCl, 20 mM MgCl, 5 mM MnCl, 2 mM DTT, 0.05% BSA.
The assay is quenched and stopped with 160 μL of detection reagent. Detection reagents are as follows: Buffer made of 50 mM Tris, pH 7.5, 100 mM NaCl, 3 mM EDTA, 0.05% BSA, 0.1% Tween20. Added to this buffer prior to reading is Steptavidin allophycocyanin (SA-APC) at a final conc in the assay of 0.0004 mg/mL, and europilated anti-phosphotyrosine Ab (Eu-anti-PY) at a final conc of 0.025 nM.
The assay plate is read in either a Discovery or a RubyStar. The eu-anti-PY is excited at 320 nm and emits at 615 nm to excite the SA-APC which in turn emits at 655 nm. The ratio of SA-APC at 655 nm (excited due to close proximity to the Eu-anti-PY because of phosphorylation of the peptide) to free Eu-anti-PY at 615 nm will give substrate phosphorylation.

A further test has as its system C8 cells. Kind of test: ACK1 Cell Based Assay, test (C8) cell line. As to conditions: 0.125% FCS, 20 to 24 h, cell viability (Cytotox One kit). The protocol:
The ACK1 cell based assay is designed to find inhibitors of ACK1 kinase activity which would be prime candidates for the development of anticancer drugs. […] This dependency was confirmed utilizing ACK1 specific siRNAs.
For this assay, test (C8) and control (HeLa) cell lines are seeded in 96 well tissue culture plates (BD Falcon) at a density of 2 to 4×10^4 in DMEM/F12 (C8) or DMEM (HeLa) with 0.125% FCS in the presence of ACK1 inhibitors (final DMSO concentration is 0.5%, all tissue culture media are from Cellgro). After 20 to 24 h incubation at 37° C. and 5% CO2, cell viability is determined using the Cytotox One kit (Promega) according to the manufacturer's instructions.

Another test concerns the target T2, ACK1 (Homo sapiens, UniProt Q07912).
T2 construct: a fusion of an N-terminal (His)6 Tag with amino acids 117 to 489 of ACK1; (His)6 (N); made in house; host or cells: baculovirus infected Hi-5 insect cells
Kind of test: ACK1 Enzymatic Assay. It counts as biochemical. As to conditions: 5 μM ATP, ELISA phosphotyrosine readout. The protocol: IC50 values of inventive compounds may be assessed as follows. […] The substrate of for the reaction is ACK1 itself (autophosphorylation) and poly-Glutamic acid-Tyrosine (PGT (4:1), Sigma catalog #PO275). The PGT is coated to Nunc 96 well plates at 80 μg/mL overnight at 4° C. […] Test compounds are added in 10 μL DMSO, and the reaction is started by addition of 10 μL kinase in assay buffer. The reaction proceeds 2 h at room temperature. Next the plates are washed four times, and the level of tyrosine phosphorylation in a given well is quantified by standard ELISA assay utilizing a phosphotyrosine antibody (PY20, Pierce).

T1 sequence (P06239 225-509): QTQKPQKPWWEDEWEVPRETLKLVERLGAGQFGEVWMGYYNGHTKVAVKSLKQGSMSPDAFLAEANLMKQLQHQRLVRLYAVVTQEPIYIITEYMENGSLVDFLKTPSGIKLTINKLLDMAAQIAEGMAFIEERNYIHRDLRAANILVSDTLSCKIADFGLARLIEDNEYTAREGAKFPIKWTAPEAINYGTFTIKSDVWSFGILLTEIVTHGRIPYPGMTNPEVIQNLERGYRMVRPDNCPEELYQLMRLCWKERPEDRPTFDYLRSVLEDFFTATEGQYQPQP
T2 sequence (Q07912 117-489): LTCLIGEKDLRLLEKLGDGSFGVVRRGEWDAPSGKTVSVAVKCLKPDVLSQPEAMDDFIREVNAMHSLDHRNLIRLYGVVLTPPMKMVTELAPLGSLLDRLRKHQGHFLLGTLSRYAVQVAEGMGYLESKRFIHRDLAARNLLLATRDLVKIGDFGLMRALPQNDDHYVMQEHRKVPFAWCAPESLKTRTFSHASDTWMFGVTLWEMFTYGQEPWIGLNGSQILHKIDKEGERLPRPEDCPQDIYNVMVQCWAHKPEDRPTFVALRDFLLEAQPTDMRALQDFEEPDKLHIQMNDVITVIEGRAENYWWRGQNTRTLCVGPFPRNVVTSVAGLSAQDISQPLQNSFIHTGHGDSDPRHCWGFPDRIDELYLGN

`CO[C@@H]1CC[C@H]1CNc1ncnc2[nH]c(-c3ccc(OCCN(C)C)cc3)c(-c3ccccc3)c12` (mixture of isomers) [Example 35, trans/cis-{6-[4-(2-Dimethylamino-ethoxy)-phenyl]-5-phenyl-7H-pyrrolo[2,3-d]pyrimidin-4-yl}-(2-methoxy-cyclobutylmethyl)-amine]: the Ki on LCK was under 10 nM; on ACK1 it was 10 to 100 nM. In the test with C8 cells, this compound registered an IC50 of over 100 nM.

In the test with C8 cells, `CN(C)CCOc1ccc(-c2[nH]c3ncnc(NC[C@@H]4CC[C@H]4O)c3c2-c2ccccc2)cc1` (mixture of isomers) [Example 36, trans/cis-2-({6-[4-(2-Dimethylamino-ethoxy)-phenyl]-5-phenyl-7H-pyrrolo[2,3-d]pyrimidin-4-ylamino}-methyl)-cyclobutanol] displayed an IC50 of over 100 nM. The compound further came in with a Ki at ACK1 of 10 to 100 nM.

Consider `CN(C)CCOc1ccc(-c2[nH]c3ncnc(NC[C@H]4CCC[C@H]4O)c3c2-c2ccccc2)cc1` (relative stereo) [Example 37, cis-2-({6-[4-(2-Dimethylamino-ethoxy)-phenyl]-5-phenyl-7H-pyrrolo[2,3-d]pyrimidin-4-ylamino}-methyl)-cyclopentanol], for which the inhibitory constant (Ki) on LCK is under 10 nM. The IC50 in the test with C8 cells was over 100 nM.

On to `CN(C)CCOc1ccc(-c2[nH]c3ncnc(NC[C@H]4CCC[C@H]4N)c3c2-c2ccccc2)cc1` (relative stereo) [Example 38, cis-(2-Amino-cyclopentylmethyl)-{6-[4-(2-dimethylamino-ethoxy)-phenyl]-5-phenyl-7H-pyrrolo[2,3-d]pyrimidin-4-yl}-amine], for which the Ki is 10 to 100 nM on LCK and over 100 nM at ACK1. In the test on C8 cells, this compound displayed a 50% inhibitory concentration (IC50) of over 100 nM.

As for `CN(C)CCOc1ccc(-c2[nH]c3ncnc(NC[C@H]4CCC[C@H]4NS(C)(=O)=O)c3c2-c2ccccc2)cc1` (relative stereo) [Example 39, cis-N-[2-({6-[4-(2-Dimethylamino-ethoxy)-phenyl]-5-phenyl-7H-pyrrolo[2,3-d]pyrimidin-4-ylamino}-methyl)-cyclopentyl]-methanesulfonamide], the Ki is under 10 nM on LCK and over 100 nM on ACK1. The IC50 in the test on C8 cells is over 100 nM.

Consider `CN(C)CCOc1ccc(-c2[nH]c3ncnc(NC[C@@H]4CCC[C@H]4N)c3c2-c2ccccc2)cc1` (relative stereo) [Example 40, trans-(2-Amino-cyclopentylmethyl)-{6-[4-(2-dimethylamino-ethoxy)-phenyl]-5-phenyl-7H-pyrrolo[2,3-d]pyrimidin-4-yl}-amine], for which the Ki on LCK was under 10 nM; at ACK1 it was over 100 nM. This compound showed an IC50 in the test on C8 cells of over 100 nM.

Take `CN(C)CCOc1ccc(-c2[nH]c3ncnc(NC[C@@H]4CCC[C@H]4NS(C)(=O)=O)c3c2-c2ccccc2)cc1` (relative stereo) [Example 41, trans-N-[2-({6-[4-(2-Dimethylamino-ethoxy)-phenyl]-5-phenyl-7H-pyrrolo[2,3-d]pyrimidin-4-ylamino}-methyl)-cyclopentyl]-methanesulfonamide]: the Ki on LCK is under 10 nM; on ACK1, 10 to 100 nM. Besides, the IC50 in the test on C8 cells was over 100 nM.

On to `c1ccc(-c2[nH]c3ncnc(NCCN4CCOCC4)c3c2-c2ccccc2)cc1` [Example 1, (5,6-Diphenyl-7H-pyrrolo[2,3-d]pyrimidin-4-yl)-(2-morpholin-4-ylethyl)-amine], for which the Ki on LCK and at ACK1 was 10 to 100 nM each time. This compound also gave an IC50 with C8 cells of over 100 nM.

`c1ccc(-c2[nH]c3ncnc(NCC4CCCO4)c3c2-c2ccccc2)cc1` (stereo not drawn) [Example 2, (5,6-Diphenyl-7H-pyrrolo[2,3-d]pyrimidin-4-yl)-(tetrahydrofuran-2-ylmethyl)-amine]: the Ki on LCK and on ACK1 was under 10 nM throughout. The compound further gave an IC50 in the test with C8 cells of over 100 nM.

Regarding `c1ccc(-c2[nH]c3ncnc(NCC4CCCS4)c3c2-c2ccccc2)cc1` (stereo not drawn) [Example 3, (5,6-Diphenyl-7H-pyrrolo[2,3-d]pyrimidin-4-yl)-(tetrahydrothiophen-2-ylmethyl)-amine], the Ki is under 10 nM at LCK and 10 to 100 nM on ACK1. In the test on C8 cells, the half-maximal inhibitory concentration (IC50) is over 100 nM.

For the compound `c1ccc(-c2[nH]c3ncnc(NCC4CCCCO4)c3c2-c2ccccc2)cc1` (stereo not drawn) [Example 4, (5,6-Diphenyl-7H-pyrrolo[2,3-d]pyrimidin-4-yl)-(tetrahydropyran-2-ylmethyl) amine], the Ki on LCK is under 10 nM; at ACK1, 10 to 100 nM. Moreover, the IC50 in the test with C8 cells is over 100 nM.

Turning to `CN(C)S(=O)(=O)c1ccc(-c2[nH]c3ncnc(NC[C@@H]4CCCO4)c3c2-c2ccccc2)cc1` [Example 5, N,N-Dimethyl-4-{5-phenyl-4-[(tetrahydro-furan-2-ylmethyl)-amino]-7H-pyrrolo[2,3-d]pyrimidin-6-yl}-benzenesulfonamide], the Ki at LCK and on ACK1 was under 10 nM throughout. This compound showed an IC50 in the test with C8 cells of 10 to 100 nM.

For `CNS(=O)(=O)c1ccc(-c2[nH]c3ncnc(NCC4CCCO4)c3c2-c2ccccc2)cc1` (stereo not drawn) [Example 6, N-Methyl-4-{5-phenyl-4-[(tetrahydrofuran-2-ylmethyl)-amino]-7H-pyrrolo[2,3-d]pyrimidin-6-yl}-benzenesulfonamide], the Ki at LCK and on ACK1 was under 10 nM each time. This compound yielded an IC50 in the test on C8 cells of 10 to 100 nM.

With `CCN(CC)S(=O)(=O)c1ccc(-c2[nH]c3ncnc(NCC4CCCO4)c3c2-c2ccccc2)cc1` (stereo not drawn) [Example 7, N,N-Diethyl-4-{5-phenyl-4-[(tetrahydrofuran-2-ylmethyl)-amino]-7H-pyrrolo[2,3-d]pyrimidin-6-yl}-benzenesulfonamide], the Ki on LCK and on ACK1 was under 10 nM each time. Also, the IC50 in the test on C8 cells is over 100 nM.

For the compound `COCCN(CCOC)S(=O)(=O)c1ccc(-c2[nH]c3ncnc(NCC4CCCO4)c3c2-c2ccccc2)cc1` (stereo not drawn) [Example 8, N,N-Bis-(2-methoxyethyl)-4-{5-phenyl-4-[(tetrahydrofuran-2-ylmethyl)-amino]-7H-pyrrolo[2,3-d]pyrimidin-6-yl}-benzenesulfonamide], the Ki on LCK and at ACK1 was under 10 nM in each case. The compound further had an IC50 with C8 cells of over 100 nM.

For `COCCNS(=O)(=O)c1ccc(-c2[nH]c3ncnc(NCC4CCCO4)c3c2-c2ccccc2)cc1` (stereo not drawn) [Example 9, N-(2-Methoxyethyl)-4-{5-phenyl-4-[(tetrahydrofuran-2-ylmethyl)-amino]-7H-pyrrolo[2,3-d]pyrimidin-6-yl}-benzenesulfonamide], the Ki on LCK and on ACK1 was under 10 nM throughout. The compound further came in with an IC50 in the test on C8 cells of 10 to 100 nM.

As for `O=S(=O)(c1ccc(-c2[nH]c3ncnc(NCC4CCCO4)c3c2-c2ccccc2)cc1)N1CCOCC1` (stereo not drawn) [Example 10, {6-[4-(Morpholin-4-sulfonyl)-phenyl]-5-phenyl-7H-pyrrolo[2,3-d]pyrimidin-4-yl}-(tetrahydrofuran-2-ylmethyl)-amine], the Ki at LCK and on ACK1 was under 10 nM throughout. The compound also yielded an IC50 in the test on C8 cells of over 100 nM.

`O=S(=O)(NCCN1CCOCC1)c1ccc(-c2[nH]c3ncnc(NCC4CCCO4)c3c2-c2ccccc2)cc1` (stereo not drawn) [Example 11, N-(2-Morpholin-4-yl-ethyl)-4-{5-phenyl-4-[(tetrahydrofuran-2-ylmethyl)-amino]-7H-pyrrolo[2,3-d]pyrimidin-6-yl}-benzenesulfonamide]: the Ki on LCK and at ACK1 was under 10 nM throughout. In the test on C8 cells, this compound returned an IC50 of 10 to 100 nM.

The compound `CN(C)CCOc1ccc(-c2[nH]c3ncnc(NCC4SCCS4)c3c2-c2ccccc2)cc1` [Example 33, {6-[4-(2-Dimethylaminoethoxy)-phenyl]-5-phenyl-7H-pyrrolo[2,3-d]pyrimidin-4-yl}-[1,3]dithiolan-2-ylmethyl-amine] came in with a Ki on LCK of under 10 nM. In the test on C8 cells, this compound yielded an IC50 of under 10 nM.
